This data set in a line: photoluminescence quantum yield (fraction); solvent given as SMILES.
[1] abbreviates: in O=P(c1ccccc1)(c1ccccc1)c1ccccc1Oc1ccccc1P(=O)(c1ccccc1)c1ccccc1.

Several values for one entry are separate records, joined by “and”; a condition that tells them apart may be missing. Equal values may be shown once.

In turn, `COc1ccc(N(c2ccccc2)c2ccc(OC)cc2)cc1` gave a photoluminescence quantum yield (in Cc1ccccc1) of 0.03.
On to `CCN(CC)c1ccc2cc(-c3nc4ccccc4s3)c(=O)oc2c1`, for which the photoluminescence quantum yield reads like this: (in C1CCCCC1) 0.59; (in CC1CCCCC1) 0.56; (in CC#N) 0.43; (in CCC(C)CC) 0.57; (in CCCCCC) 0.57; (in CCOC(C)=O) 0.47.
Turning to `CCCCCCCCCCCCn1cccc1/C=C/c1cc(OCCCC)c(/C=C/c2cccn2CCCCCCCCCCCC)cc1OCCCC`, the photoluminescence quantum yield (in Cc1ccccc1) worked out at 0.4.
`O=C(c1ccc(-n2c3ccccc3c3cc(-n4c5ccccc5c5ccccc54)ccc32)cc1)c1ccc(-n2c3ccccc3c3cc(-n4c5ccccc5c5ccccc54)ccc32)cn1`: the photoluminescence quantum yield runs as follows: (in Cc1ccccc1) 0.38; under setting [1], 0.73.
As for `Cc1cc2c(o1)c(Br)cc1c(C)cc(=O)oc12`, the photoluminescence quantum yield is, setting by setting: (in C1CCCCC1) 0.0004; (in C1COCCO1) 0.002; (in CC#N) 0.0014; (in CCO) 0.005; (in OCC(F)(F)F) 0.005.
For `Cc1ccccc1C`, the photoluminescence quantum yield (in C1CCCCC1) was found to be 0.26.
Turning to `COCCOCCOCCOc1ccc(OCCOCCOCCOC)c(C=O)c1`, the photoluminescence quantum yield worked out at 0.13 (in CC(C)(C)O); 0.2 (in CC(C)CO); 0.2 (in CC(C)O); 0.22 (in CCCCO); 0.23 (in CCCO); 0.2 (in CCO). The photoluminescence quantum yield (in CN(C)C=O) was determined as 0.02; the photoluminescence quantum yield (in CNC=O) was 0.14; the photoluminescence quantum yield (in CO) worked out at 0.25; the photoluminescence quantum yield (in NC=O) came out at 0.43; the photoluminescence quantum yield (in O) worked out at 0.11.
Consider `C/C=C/C1=NC(=C\c2ccc([O-])cc2)/C(=O)N1C`, for which the photoluminescence quantum yield (in O) was 0.0006.
Turning to `O=C([O-])c1ccc2cc3cc(C(=O)[O-])ccc3cc2c1`, the photoluminescence quantum yield (in CN(C)C=O) was 0.11.
In turn, `CCN(CC)c1ccc2c(c1)oc(=O)c1c(C)nc3c(c(C)nn3-c3ccccc3)c12` had a photoluminescence quantum yield (in C1CCCCC1) of 0.852; a photoluminescence quantum yield (in CCOC(C)=O) of 0.733; a photoluminescence quantum yield (in CN(C)C=O) of 0.562; a photoluminescence quantum yield (in CO) of 0.428; a photoluminescence quantum yield (in ClCCl) of 0.827.
Molecule `Cc1c2c(c(C)c3ccccc13)-c1c-2ccc2nc3ccccc3nc12` yielded a photoluminescence quantum yield (in ClC(Cl)Cl) of 0.02.
Molecule `COc1cc2cc(/C=C/c3ccc(/C=C/c4ccc(/C=C(\C#N)C(=O)O)cc4)cc3)c(=O)oc2cc1OC` returned a photoluminescence quantum yield (in CC#N) of 0.24.
As for `N#Cc1ccc(/C=C/C(F)(F)F)c(N)c1`, under “in C1CCOC1”, the photoluminescence quantum yield is 0.82.
`CCCCCCCCN(CCCCCCCC)c1ccc(/C=C/c2ccc(C#Cc3ccc(-c4ccc(C#Cc5ccc(/C=C/c6ccc(N(CCCCCCCC)CCCCCCCC)cc6)cc5)cc4)cc3)cc2)cc1` registered a photoluminescence quantum yield (in Cc1ccccc1) of 0.5.
On to `CCC1(CC)c2cc(/C=C/c3ccc(N(c4ccccc4)c4ccccc4)cc3)ccc2-c2ccc(/C=C/c3ccc(N(c4ccccc4)c4ccccc4)cc3)cc21`, for which, for the setting “in Cc1ccccc1”, the photoluminescence quantum yield worked out at 0.84.
In turn, `N#CC(C#N)=Cc1ccc(-c2ccc(-c3nc4ccccc4s3)c(O)c2)s1` had a photoluminescence quantum yield (in CCO) of 0.0111, a photoluminescence quantum yield (in ClCCl) of 0.0197 and a photoluminescence quantum yield (in O) of 0.01.
In the case of `Cc1nc2c(ccc3c2sc(/C=C/c2ccc(N(CCO)CCO)cc2)[n+]3C)s1`, the photoluminescence quantum yield reads like this: (in CO) 0.023; (in ClC(Cl)Cl) 0.02.
`CCCc1c(C(=O)c2ccc3c4c(cccc24)-c2cccc4c2C3CC=C4)c2ccc3cccc4c5cccc6ccc1c(c65)c2c34` (stereo not drawn) yielded a photoluminescence quantum yield (in ClCCl) of 0.058.
The molecule `Cc1ccc(-n2c(-c3ccccc3[N-]S(=O)(=O)c3ccc(C)cc3)[nH+]c3c4ccccc4c4ccccc4c32)cc1` showed a photoluminescence quantum yield (in Cc1ccccc1) of 0.468.
Turning to `CC1(C)c2ccccc2N(c2ccc(-c3cnc(C#N)nc3)cc2)c2ccccc21`, the photoluminescence quantum yield came out at 0.311 (in Cc1ccccc1) and 1 (in N#Cc1ccc2c(c1)c1ccccc1n2-c1cccc(-n2c3ccccc3c3ccccc32)c1).
Turning to `Oc1ccc2ccccc2c1/C=N/c1ccccc1/N=C/c1c(O)ccc2ccccc12`, the photoluminescence quantum yield (in CC#N) was 0.3.
`CCOC(=O)c1cc(C(=O)OCC)c2cc(OC)ccc2n1` registered a photoluminescence quantum yield (in CCO) of 0.53.
As to `CCCCN1C(=O)c2cc(Oc3ccc(C(C)(C)C)cc3)c3c4c(Oc5ccc(C(C)(C)C)cc5)cc5c6c(cc(Oc7ccc(C(C)(C)C)cc7)c(c7c(Oc8ccc(C(C)(C)C)cc8)cc(c2c37)C1=O)c64)C(=O)N(CCCC)C5=O`, the photoluminescence quantum yield runs as follows: (in C1CCOC1) 0.82; (in Cc1ccccc1) 0.811; (in ClC(Cl)Cl) 0.83; (in ClCCl) 0.802.
With `CCCCCCCCCCCCCCCCOc1cc(C#Cc2ccc3ccccc3c2-c2c(C#Cc3cc(OCCCCCCCCCCCCCCCC)c(C#Cc4ccc(C=C(C#N)C#N)cc4)cc3OCCCCCCCCCCCCCCCC)ccc3ccccc23)c(OCCCCCCCCCCCCCCCC)cc1C#Cc1ccc(C=C(C#N)C#N)cc1`, the photoluminescence quantum yield reads like this: (in Brc1ccccc1) 0.63; (in C1CCCCC1) 0.99; (in C1CCOC1) 0.3; (in C1COCCO1) 0.94; (in CCCCCC) 0.98; (in CCCCCCCCO) 0.52. Besides, the photoluminescence quantum yield runs as follows: (in CCCCOCCCC) 0.97; (in CCOC(C)=O) 0.37; (in CCOCC) 0.87; (in Cc1ccccc1) 0.95; (in ClC(Cl)(Cl)Cl) 0.95; (in ClC(Cl)Cl) 0.81. Under “in ClCCl”, this molecule came in with a photoluminescence quantum yield of 0.23.
As to `COC(=O)c1nc2c(N)nc(N(C)C)nc2n1Cc1ccccc1`, the photoluminescence quantum yield is 0.95 (in C1COCCO1), 0.75 (in CC#N), 0.76 (in CO) and 0.95 (in ClCCl).
In turn, `CC[N+](CC)=c1ccc2c(C(F)(F)F)c3c(oc-2c1)-c1ccc(N(C)C)cc1CC3` gave a photoluminescence quantum yield (in CCO) of 0.163, a photoluminescence quantum yield (in ClCCl) of 0.336 and a photoluminescence quantum yield (in O) of 0.039.
In the case of `c1ccc2c(-n3c(-c4ccc(-c5ccc(-c6nc7c8ccccc8c8ccccc8c7n6-c6cccc7ccccc67)c6ccccc56)c5ccccc45)nc4c5ccccc5c5ccccc5c43)cccc2c1`, the photoluminescence quantum yield (in ClCCl) is 0.75.
Same read-out and setting: the figure for `COc1cc(-c2cnc(-c3ccncc3)o2)cc(OC)c1OC` is 0.76.
As for `COc1ccc(-c2ccc(OC)cc2)cc1`, for the setting “in C1CCCCC1”, the photoluminescence quantum yield was found to be 0.31.
For the molecule `C=CCOc1ccc(-c2nc3cc(C(NC(=O)OC(C)(C)C)C(=O)OC)ccc3o2)cc1` (stereo not drawn), the photoluminescence quantum yield runs as follows: (in CC1CCCCC1) 0.84; (in CC#N) 0.56; (in CO) 0.79.
`CC1(C)c2ccccc2N(c2ccc(-c3ccc4c(c3)C(=O)c3ccc(-c5ccc(N6c7ccccc7C(C)(C)c7ccccc76)cc5)cc3C4=O)cc2)c2ccccc21` registered a photoluminescence quantum yield (in Cc1ccccc1) of 0.17 and a photoluminescence quantum yield (in c1ccc2c(c1)c1ccccc1n2-c1ccc(-c2ccc(-n3c4ccccc4c4ccccc43)cc2)cc1) of 0.5.
`Oc1ccc(C2=[N+]3C(=C(c4ccccc4)c4cccn4[B-]3(F)F)C=C2)cc1` had a photoluminescence quantum yield (in ClC(Cl)Cl) of 0.06.
As to `CCCCCCOc1cc(C=C2C(=O)c3ccccc3C2=O)c(OCCCCCC)cc1C=C1C(=O)c2ccccc2C1=O`, the photoluminescence quantum yield (in ClCCl) was found to be 0.697.
In the case of `C(#Cc1cccs1)C(C#Cc1cccs1)=Cc1ccc(C=C(C#Cc2cccs2)C#Cc2cccs2)cc1`, under “in ClC(Cl)Cl”, the photoluminescence quantum yield is 0.32 and 0.25.
Turning to `Cc1cccn2c1cc1c3ccccc3nc(-c3ccc(Cl)o3)c12`, the photoluminescence quantum yield (in CS(C)=O) was determined as 0.31.
Turning to `COC(=O)COc1ccc(/C=C/C2=[N+]3C(=C(c4ccc(N5CCCCC5)cc4)c4c(C)cc(C)n4[B-]3(F)F)C(C)=C2)cc1`, the photoluminescence quantum yield (in CO) came out at 0.87.
On to `O=Cc1ccc(-c2cccc(-c3nc4ccccc4s3)c2O)s1`, for which the photoluminescence quantum yield stood at 0.123 (in CCO), 0.164 (in ClCCl) and 0.02 (in O).
Take `CSc1ccc(C#Cc2ccc(C#Cc3ccc(C#Cc4ccccc4C#N)cc3C#N)cc2C#N)cc1`: the photoluminescence quantum yield (in ClC(Cl)Cl) turned out to be 0.972.
`CC1(C)c2ccccc2-n2c(-c3ccc(N4c5ccccc5Sc5ccccc54)cc3)nc3cccc1c32`: the photoluminescence quantum yield is, setting by setting: (in Cc1ccccc1) 0.08; under setting [1], 0.05.
On to `COc1ccc2cc([C@H](C)C(=O)O)ccc2c1`, for which the photoluminescence quantum yield runs as follows: (in C1CCOC1) 0.45; (in CC#N) 0.31; (in CC(C)O) 0.23; (in CCCCO) 0.17; (in CCO) 0.18; (in CO) 0.18. Further, the photoluminescence quantum yield was 0.32 (in ClCCl) and 0.41 (in O).
Where the note is “in ClCCl”, `C(#Cc1cc(C#Cc2ccccc2)c(C#Cc2ccccc2)c(C#Cc2ccccc2)c1C#Cc1ccccc1)c1ccccc1` had a photoluminescence quantum yield of 0.26.
As to `CCCCCCN(c1ccccc1)c1ccc2c(c1)C(CC)(CC)c1cc(/C=C/c3ccc(/C=C(\C#N)C(=O)O)s3)ccc1-2`, the photoluminescence quantum yield was 0.458 (in C1CCOC1); 0.813 (in C1COCCO1); 0.105 (in CC#N); 0.251 (in CC(C)=O); 0.443 (in CCOC(C)=O); 0.638 (in CN(C)C=O). Also, the photoluminescence quantum yield (in CS(C)=O) came to 0.322 and the photoluminescence quantum yield (in ClCCl) was determined as 0.047.
`CCOC(=O)CN1C(=O)C2=C(c3ccc(N4CCCCC4)cc3)N(CC(=O)OCC)C(=O)C2=C1c1ccccc1`: the photoluminescence quantum yield reads like this: (in CC#N) 0.01; (in CS(C)=O) 0.12; (in Cc1ccccc1) 0.34.

These data come from the Deep4Chem optical property database.
